Source: patent US12325708B2, “Adenosine 2 receptor antagonists” (Nektar Therapeutics, priority 2019, dated 2025)

Columns and labels:
[1] = Brain-to-plasma ratio (B/P) after administration; type: in vivo, Sprague-Dawley rats; details: Sprague-Dawley, rat, oral, 2.5 mg/kg; Table 6; brain-to-plasma ratio at 1 h
From the text: A similar unexpected result was obtained when the phenyl ring present on Compound 1 was replaced with a halogen substituted pyridine. The halogen was previously introduced on the phenyl ring with the aim of blocking a possible metabolic soft-spot, with similar results observed as for Compound 1 in terms of exposure, clearance and bioavailability (Compound 10 and Compound 15). The substituted pyridine ring was designed to modulate the lipophilicity and polar surface area, as well as to address metabolic soft-spot concerns. Clearance and bioavailability parameters remain similar between substituted phenyl and pyridine (Compound 4 and Compound 14) analogs, which span a range in cLogP of 2.7-3.2. It was therefore surprising the significant improvement in exposure and clearance observed for the more lipophilic Compound 19. […] A compound is commonly deemed to be a brain penetrant if the brain-to-blood/plasma concentration ratio (B/P) is greater than 0.04 using methods as known in the art (Schaffer, Annual Reports in Medicinal Chemistry, 45:55-70, 2010).
Plasma pharmacokinetic parameters were determined following oral (PO) administration of further compounds essentially as described in Example 28 with the results shown in Table 6.

A1 receptor = biological target: T1, A1 receptor (Homo sapiens, UniProt P30542); test: Radioligand receptor binding assay, A1 receptor; details: cell membranes overexpressing A1 receptor, read-out: Potency Ki A1
T1 construct: purchased
T1 sequence (P30542 1-326): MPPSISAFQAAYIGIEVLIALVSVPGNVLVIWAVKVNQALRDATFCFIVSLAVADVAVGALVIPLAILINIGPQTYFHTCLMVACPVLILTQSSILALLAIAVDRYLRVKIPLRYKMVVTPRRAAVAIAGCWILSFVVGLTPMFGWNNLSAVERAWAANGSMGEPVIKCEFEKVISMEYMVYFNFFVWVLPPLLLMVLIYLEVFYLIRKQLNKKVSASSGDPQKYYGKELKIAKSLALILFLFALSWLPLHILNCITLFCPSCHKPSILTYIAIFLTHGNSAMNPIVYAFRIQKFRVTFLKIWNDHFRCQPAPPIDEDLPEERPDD
Method: (§1) Using conventional receptor binding assay techniques, Compounds 1-24 were assayed to determine binding activity at the A2A, A1, and A3 receptors with the results shown in Table 7.
(§2) Receptor binding affinity of Compounds 1-24 was measured using radioligand binding assays using commercially obtained cell membranes prepared from cell lines overexpressing the A2A, A1, or A3 receptors. Briefly, cell membrane preparations from cells expressing the specific receptor were mixed with the appropriate [^3H]-labeled tracer for the specific receptor and the test compound or a known inhibitor of receptor-ligand binding. Following 60 min incubation at room temperature to allow receptor-ligand complex formation, the complexes were collected by filtration, washed with 50 mM Tris HCl (pH 7.5) to remove radioligand that was not receptor-bound, and the remaining radioactivity determined by liquid scintillation counting. Specific radioligand binding was calculated for each test compound concentration and IC50 values were determined by non-linear, regression analysis. Inhibition constants (Ki) were calculated using the equation of Cheng and Prusoff using the observed IC50 of the tested compound, the concentration of radioligand employed in the assay and the experimentally determined values for the Kd of the ligand.

[2] = Plasma pharmacokinetic parameters following intravenous (IV) or oral (PO) administration in rats; type: in vivo, Sprague-Dawley rats; details: male, Sprague-Dawley, rat, plasma, Table 6; for AUC / bioavailability: 2.5 mg/kg, oral (PO) administration essentially as described in Example 28; for clearance: intravenous, 0.5 mg/kg, essentially as described in Example 28; for bioavailability: po
Method: (§3) Adult male Sprague-Dawley rats (230-250 g) (Charles River Labs, Hollister, CA) were utilized for the study. There were 2 rats/group. All animals were food fasted overnight with water provided ad libitum at all times. Compounds 1, 4, 14 and 19 were synthesized as described in Examples 2, 17, 7, and 12, respectively, and formulated in injectable water.
(§4) The morning of each dosing, individual doses were calculated based on current body weights on the day of dosing. The jugular vein cannula (JVC) and the carotid artery cannula (CAC) were externalized, flushed with HEP/saline (10 IU/mL HEP/mL saline), plugged, and labeled to identify the jugular vein and the carotid artery. The IV group animals were dosed at 0.5 mg/kg of Compound 1, 4, 14 or 19, respectively, intravenously via the jugular vein, while the PO dose was administered 2.5 mg/kg of Compound 1, 4, 14 or 19, respectively, orally via gavage. For the IV group, immediately following the dose of test article, the dead volume of the catheter was flushed with 0.9% saline to ensure the animals received the full dose.
Approximately 0.2 mL of blood was collected per time point from JVC. Blood samples were collected at 2 (IV group only), 5, 15, 30, 60, 120, 240, 360, 420 (Compound 19 only), 480, 720 (Compound 19 only), and 1440 minutes via the CAC and transferred immediately into K2EDTA coated tubes pre-loaded 2 μl with quenching cocktail and placed on wet ice. The samples were centrifuged within 30 min after collection at 10,000 RPM for 5 minutes and the resulting plasma was separated. Plasma was transferred into microfuge tubes and placed on dry ice immediately. The plasma samples were stored at approximately −70° C. until bioanalysis.
Plasma samples were extracted by protein precipitation with acetonitrile containing 0.1% formic acid and doxepin for Compound 1 (available from Sigma-Aldrich) or SCH58261 for Compounds 4, 14 and 19 (available from Sigma-Aldrich) as an internal standard. Following vortex and centrifugation, supernatant was diluted 3-fold with water containing 0.1% formic acid and analyzed by LC-MS/MS.
Pharmacokinetic parameters (PK) were determined by non-compartmental analysis (NCA) using Phoenix 64 WinNonlin (version 8) and Dotmatics (version 5.0). Nominal doses and time points were used for the analysis.
The following PK parameters were estimated using plasma concentration-time profile of each animal with the results presented in Table 3: • AUCinf Area under the concentration-time from zero to time infinity • AUClast Area under the concentration-time from zero to time of last concentration value • F Bioavailability • CL Total body clearance • Cmax Maximum (peak) concentration • MRTlast Mean residence time to last observable concentration • Tmax Time to reach maximum or peak concentration following administration • Vss Volume of distribution at steady state
as §3, with “Compound 1 was” for “Compounds 1, 4, 14 and 19 were”, “Example 2” for “Examples 2, 17, 7, and 12, respectively,”
as §4, with “1” for “1, 4, 14 or 19, respectively,”
Approximately 0.2 mL of blood was collected per time point from JVC. […]

A2A receptor = biological target: T2, A2A receptor (Homo sapiens, UniProt P29274); test: Radioligand receptor binding assay, A2A receptor; details: cell membranes overexpressing A2A receptor, read-out: Potency Ki A2A
T2 construct: purchased
Method: as §1, §2

T2 sequence (P29274 whole entry): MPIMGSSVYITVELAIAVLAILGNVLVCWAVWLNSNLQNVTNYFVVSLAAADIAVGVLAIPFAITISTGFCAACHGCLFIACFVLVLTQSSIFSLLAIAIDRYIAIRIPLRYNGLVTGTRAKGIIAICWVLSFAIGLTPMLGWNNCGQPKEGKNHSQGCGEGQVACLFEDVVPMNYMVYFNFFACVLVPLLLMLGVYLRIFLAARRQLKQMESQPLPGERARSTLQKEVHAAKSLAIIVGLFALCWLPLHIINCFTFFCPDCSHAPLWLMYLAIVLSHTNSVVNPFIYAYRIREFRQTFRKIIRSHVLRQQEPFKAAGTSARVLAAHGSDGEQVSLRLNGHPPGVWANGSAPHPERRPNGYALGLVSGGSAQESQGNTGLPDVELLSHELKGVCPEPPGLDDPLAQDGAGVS

SMILES | Kp at 1 h [1] | Ki (A1 receptor) [nM] | AUC [2] [ng·h/mL] | clearance [2] [mL/min/kg] | bioavailability [2] [%] | Ki (A2A receptor) [nM]
COCCOc1ccc(N2CCN(CCN(C)c3nc(N)n4nc(-c5ncco5)nc4n3)CC2)cc1 [Compound 2, N^5-(2-{4-[4-(2-methoxyethoxy)phenyl]piperazin-1-yl}ethyl)-N^5-methyl-2-(1,3-oxazol-2-yl)[1,2,4]triazolo[1,5-a][1,3,5]triazine-5,7-diamine] | 0.04 | 13000 | 320 | 54 | 43 | 7
COCCOc1cnc(N2CCN(CCN(C)c3cc4nc(-c5ncco5)nn4c(N)n3)CC2)nc1 [Compound 3, N^7-(2-{4-[5-(2-methoxyethoxy)pyrimidin-2-yl]piperazin-1-yl}ethyl)-N^7-methyl-2-(1,3-oxazol-2-yl)[1,2,4]triazolo[1,5-c]pyrimidine-5,7-diamine] | 0.04 | 20100 | 376 | 47 | 44 | 10
CN(CCN1CCN(c2ccc(OCCOC(F)(F)F)cc2)CC1)c1cc2nc(-c3ncco3)nn2c(N)n1 [Compound 5, N^7-methyl-2-(1,3-oxazol-2-yl)-N^7-[2-(4-{4-[2-(trifluoromethoxy)ethoxy]phenyl}piperazin-1-yl)ethyl][1,2,4]triazolo[1,5-c]pyrimidine-5,7-diamine] | 0.1 | > 10000 | 971 | 21 | 48 | 7
[2H]C([2H])([2H])N(CCN1CCN(c2ccc(OCCOC)cc2)CC1)c1cc2nc(-c3ncco3)nn2c(N)n1 [Compound 6, N^7-(2-{4-[4-(2-methoxyethoxy)phenyl]piperazin-1-yl}ethyl)-N^7-(^2H3)methyl-2-(1,3-oxazol-2-yl)[1,2,4]triazolo[1,5-c]pyrimidine-5,7-diamine] | 0.05 | > 4000 | 852 | 34 | 64 | 12
[2H]C([2H])([2H])OCCOc1ccc(N2CCN(CCN(C)c3cc4nc(-c5ncco5)nn4c(N)n3)CC2)cc1 [Compound 7, N^7-methyl-N^7-{2-[4-(4-{2-[(^2H3)methyloxy]ethoxy}phenyl)piperazin-1-yl]ethyl}-2-(1,3-oxazol-2-yl)[1,2,4]triazolo[1,5-c]pyrimidine-5,7-diamine] | 0.07 | > 4000 | 1020 | 24 | 60 | 13
[2H]C([2H])([2H])OCCOc1ccc(N2CCN(CCN(c3cc4nc(-c5ncco5)nn4c(N)n3)C([2H])([2H])[2H])CC2)cc1 [Compound 8, N^7-(^2H3)methyl-N^7-{2-[4-(4-{2-[(^2H3)methyloxy]ethoxy}phenyl)piperazin-1-yl]ethyl}-2-(1,3-oxazol-2-yl)[1,2,4]triazolo[1,5-c]pyrimidine-5,7-diamine] | 0.04 | > 4000 | 1200 | 22 | 63 | 4
[2H]C([2H])(N1CCN(c2ccc(OCCOC)cc2)CC1)C([2H])([2H])N(C)c1cc2nc(-c3ncco3)nn2c(N)n1 [Compound 9, N^7-[2-{4-[4-(2-methoxyethoxy)phenyl]piperazin-1-yl}(^2H4)ethyl]-N^7-methyl-2-(1,3-oxazol-2-yl)[1,2,4]triazolo[1,5-c]pyrimidine-5,7-diamine] | 0.04 | > 4000 | 1170 | 23 | 65 | 6
[2H]C([2H])([2H])OCCOc1ccc(N2CCN(CCN(C)c3cc4nc(-c5ncco5)nn4c(N)n3)CC2)c(F)c1 [Compound 10, N^7-{2-[4-(2-fluoro-4-{2-[(^2H3)methyloxy]ethoxy}phenyl)piperazin-1-yl]ethyl}-N^7-methyl-2-(1,3-oxazol-2-yl)[1,2,4]triazolo[1,5-c]pyrimidine-5,7-diamine] | 0.09 | > 10000 | 819 | 30 | 57 | 5.5
[2H]C([2H])([2H])OCCOc1cnc(N2CCN(CCN(C)c3cc4nc(-c5ncco5)nn4c(N)n3)CC2)c(F)c1 [Compound 11, N^7-{2-[4-(3-fluoro-5-{2-[(^2H3)methyloxy]ethoxy}pyridin-2-yl)piperazin-1-yl]ethyl}-N^7-methyl-2-(1,3-oxazol-2-yl)[1,2,4]triazolo[1,5-c]pyrimidine-5,7-diamine] |  | 16900 | 708 | 30 | 63 | 2.3
[2H]C([2H])([2H])OC([2H])([2H])C([2H])([2H])Oc1ccc(N2CCN(CCN(C)c3cc4nc(-c5ncco5)nn4c(N)n3)CC2)cc1 [Compound 12, N^7-methyl-N^7-(2-{4-[4-({2-[(^2H3)methyloxy](^2H4)ethyl}oxy)phenyl]piperazin-1-yl}ethyl)-2-(1,3-oxazol-2-yl)[1,2,4]triazolo[1,5-c]pyrimidine-5,7-diamine] | 0.03 | > 100000 | 1000 | 23 | 56 | 4
